Test results published in paper PMC7766104, “Inhibition of Biofilm Formation by Modified Oxylipins from the Shipworm Symbiont Teredinibacter turnerae” (Marine Drugs, 2020).
≈ marks a conversion by molar mass, not a printed value. Entries after “also recorded” stand apart in the source; their conditions may differ.

What was measured:
[1] = system: Methicillin-resistant S. aureus (ATCC 43300); experiment: Antimicrobial microdilution assay (resazurin); type: cell-based; conditions: Staphylococcus aureus; planktonic; >98% growth inhibition; 24 h; read-out: MIC Methicillin-Resistant S. aureus (ATCC 43,300)
Description: (§1) All seven compounds were subjected to a panel of bioactivity assays to assess their effects on staphylococcal pathogens and mammalian cells (Table 2). […] This fluorescent stain specifically binds to sialic acid and the N-acetylglucosaminyl residues of the biofilm. […] Growth inhibition in the microbial pathogens was quantified by monitoring the conversion of resazurin to the fluorescent resorufin product.
(§2) After 24 h of incubation, 0.02% resazurin (20 µL) was added to each well, and the fluorescence was measured at 530 nm excitation and 590 nm emission. MIC is the lowest concentration at which there was no reduction of the rezasurin dye, equivalent to 98% inhibition of microbial growth. Assays were done in two independent trials with four independent replicates.

S. aureus (ATCC 6538) = experiment: Antimicrobial microdilution assay (resazurin); type: cell-based; conditions: Staphylococcus aureus, ATCC6538; planktonic; >98% growth inhibition; 24 h
Description: as §1, §2

[2] = system: S. epidermidis RP62A (ATCC 35984) biofilm formation; experiment: Biofilm inhibition assay (WGA488 staining of formed biofilm); type: cell-based, Staphylococcus epidermidis; conditions: for Selectivity Index (MICPlanktonic/MBICBiofilm): S. epidermidis RP62A, MIC planktonic / MBIC biofilm; for MBIC S. epidermidis RP62A (ATCC 35984): lowest concentration causing >98% inhibition of biofilm formation, two independent trials in quadruplicates
Description: as §1
(§3) The biofilm inhibition assay was done according to the method of Skogman et al. (2012). […] A single colony from the CRA plate was transferred in 50 mL trypticasein soy broth supplemented with glucose (TSBg) and grown overnight at 35 °C, 150 rpm. The turbidity of the culture was adjusted to match the 0.5 McFarland standard (1 × 10^8 cells/mL) and diluted 100-fold prior to inoculation in a 96-well plate. […] TSBg served as the negative control, and positive controls were chloramphenicol (Sigma-Aldrich) for planktonic cells and dispersin B (Kane Biotech) for biofilms. Dispersin B is a 40 kDa glycoside hydrolase which dissolves mature bacterial biofilms. The plates were incubated for 20 h at 37 °C without shaking to facilitate biofilm formation. At the end of the incubation period, the planktonic suspension was transferred to another 96-well plate to assess cell viability. A 20 µL-aliquot of 0.02% resazurin was added to each well and incubated for 30 min at 37 °C, 150 rpm. Fluorescence was measured using a 530 nm excitation filter and a 590 nm emission filter. To quantify the formed biofilm, 100 µL-aliquot of wheat germ agglutinin Alexa Fluor 488 (WGA488) probe (50 µg/mL) was added to each well of the original plate and incubated in the dark at 4 °C for 5 h. At the end of incubation, the plate was washed with sterile PBS (3×) and air-dried at room temperature to remove the unbound WGA488 probe. Bound stain to the biofilm was dissolved in 33% glacial acetic acid and quantified by fluorescence measurement at 485 nm/420 nm excitation filters, and 528 nm/520 nm emission filters. […] This was done in two independent trials with four independent replicates.

[3] = system: planktonic S. epidermidis RP62A (ATCC 35984); experiment: Planktonic cell viability, resazurin (from biofilm assay plate); type: cell-based, Staphylococcus epidermidis; conditions: for MIC: Staphylococcus epidermidis, ATCC35984, planktonic cells, lowest concentration with >98% growth inhibition; for bioactivity against microbial pathogens or mammalian cells (in words): statement covers the whole panel of Table 2 (staphylococcal pathogens and MDCK cells)
Description: as §1, §3

[4] = system: MDCK NBL-2 (ATCC CCL-34) cells; experiment: cells; conditions: for IC50: Canis lupus familiaris, MDCK, 72 h, read-out: IC50 MDCK NBL-2 (ATCC CCL-34)
Description: as §1
The mammalian antiproliferative assay was done according to Lacerna et al. (2019) and modified from the method of Mossman (1983). […] At 72 h post-incubation, the cells were treated with MTT and the absorbance at 570 nm was read. The IC50 was calculated using GraphPad Prism 5 based on a 4-point sigmoidal non-linear regression analysis of cell viability vs. log concentration of the inhibitor. The assay was done in two independent trials with four independent replicates.

Row | SMILES | MIC [1] | MIC (S. aureus (ATCC 6538)) | MIC [3] | inhibition of biofilm formation in S. epidermidis (in words) [2] | Selectivity Index (MICPlanktonic/MBICBiofilm) [2] | MBIC S. epidermidis RP62A (ATCC 35984) [2] | IC50 [4] | bioactivity against microbial pathogens or mammalian cells (in words) [3] | cytotoxicity / antiproliferative action in mammalian MDCK cells (in words) [4] | antimicrobial activity against planktonic S. epidermidis (in words) [3]
1 | Cc1onc(-c2ccccc2)c1C(=O)N[C@@H]1C(=O)N2[C@@H]1SC(C)(C)[C@@H]2C(=O)O [oxacillin] | 8 µg/mL (≈ 19.9 µM) | 0.5 µg/mL (≈ 1.25 µM) | – | – | – | – | – | – | – | –
2 | CCCCCC1OC1C(O)CCCCCCCCCC(=O)O (stereo not shown) [Compound 1, 11-hydroxy-12,13-epoxy-octadecanoic acid] | > 128 µg/mL | > 128 µg/mL | 128 µg/mL (≈ 407 µM) | inhibited biofilm formation | ~4 | 32 µg/mL | 61.7 µg/mL (≈ 196 µM) | – | – | –
3 | CCCCC/C=C\CCCCCCCCCCC(=O)O [Compound 7, 12(Z)-octadecenoic acid] | – | – | – | – | – | >128 µg/mL | – | – | – | –
4 | O=C(N[C@H](CO)[C@H](O)c1ccc([N+](=O)[O-])cc1)C(Cl)Cl [chloramphenicol] | – | – | 8 µg/mL (≈ 24.8 µM) | – | – | – | – | – | – | –
5 | CCCCC[C@@H]1O[C@H]1CCCCCCCCCCC(=O)O [Compound 6, trans-12,13-epoxy-octadecanoic acid] | > 128 µg/mL | > 128 µg/mL | > 128 µg/mL | inhibited biofilm formation | >8 | 16 µg/mL | > 128 µg/mL | – | no antiproliferative action | –

Further lines, with some results ahead:

Row | MIC [1] | MIC (S. aureus (ATCC 6538)) | MIC [3] | SMILES | inhibition of biofilm formation in S. epidermidis (in words) [2] | Selectivity Index (MICPlanktonic/MBICBiofilm) [2] | MBIC S. epidermidis RP62A (ATCC 35984) [2] | IC50 [4] | bioactivity against microbial pathogens or mammalian cells (in words) [3] | cytotoxicity / antiproliferative action in mammalian MDCK cells (in words) [4] | antimicrobial activity against planktonic S. epidermidis (in words) [3]
6 | > 128 µg/mL | > 128 µg/mL | > 128 µg/mL | CCCCC/C=C/C(=O)CCCCCCCC(=O)O [Compound 2, (E)-9-oxohexadec-10-enoic acid] | inhibited biofilm formation | ~1 | – | 33 µg/mL (≈ 123 µM) | – | – | –
7 | > 128 µg/mL | > 128 µg/mL | > 128 µg/mL | CCCCCCCCCCCCCCCC(=O)O [Compound 4, palmitic acid] | – | ~1 | >128 µg/mL | > 128 µg/mL | did not show any significant bioactivity | cytotoxic activity | –
8 | > 128 µg/mL | > 128 µg/mL | > 128 µg/mL | CCCCCCCCCCCCCCCCCC(=O)O [Compound 5, stearic acid] | – | ~1 | >128 µg/mL | > 128 µg/mL | did not show any significant bioactivity | – | –
9 | > 128 µg/mL | > 128 µg/mL | 16 µg/mL (≈ 54 µM) | CCCCC/C=C/C(=O)CCCCCCCCCC(=O)O [Compound 3, (E)-11-oxooctadec-12-enoic acid] | inhibited biofilm formation; also recorded: potent but non-selective activity | ~1 | 16 µg/mL | 13.6 µg/mL (≈ 45.9 µM) | – | demonstrated cytotoxicity | showed antimicrobial activity
